From patent US12599136B2, “Substituted isophthalic acid diamides and their use as herbicides” (Bayer Aktiengesellschaft, priority 2020, dated 2026)

What was measured:
Type in all cases: in vivo
Abutilon theophrasti [1] = test: Pre-emergence herbicidal action against ABUTH; settings: visual score after 3 weeks vs untreated controls
Excerpt: (§1) Seeds of monocotyledonous and dicotyledonous weed plants and crop plants are laid out in sandy loam soil in wood-fiber pots and covered with soil. The compounds of the invention, formulated in the form of wettable powders (WP) or as emulsion concentrates (EC), are then applied to the surface of the covering soil in the form of an aqueous suspension or emulsion at a water application rate equivalent to 600 to 800 l/ha, with addition of 0.2% wetting agent. After the treatment, the pots are placed in a greenhouse and kept under good growth conditions for the trial plants. The damage to the test plants is scored visually after a test period of 3 weeks by comparison with untreated controls (herbicidal activity in percent (%): 100% activity=the plants have died, 0% activity=like control plants). […] The tables below illustrate, in an illustrative manner, the post-emergence herbicidal action of the compounds of the invention, the herbicidal activity being stated in percent.

Alopecurus myosuroides [2] = test: Pre-emergence herbicidal action against ALOMY; settings: visual score after 3 weeks vs untreated controls
Excerpt: as §1

Amaranthus retroflexus [3] = test: Pre-emergence herbicidal action against AMARE; settings: visual score after 3 weeks vs untreated controls
Excerpt: as §1

Echinochloa crus-galli [4] = test: Pre-emergence herbicidal action against ECHCG; settings: visual score after 3 weeks vs untreated controls
Excerpt: as §1

Matricaria inodora [5] = test: Pre-emergence herbicidal action against MATIN; settings: visual score after 3 weeks vs untreated controls
Excerpt: as §1

Digitaria sanguinalis = test: Pre-emergence herbicidal action against DIGSA
Excerpt: as §1

Setaria viridis [6] = test: Pre-emergence herbicidal action against SETVI
Excerpt: as §1

Veronica persica [7] = test: Pre-emergence herbicidal action against VERPE
Excerpt: as §1

Viola tricolor [8] = test: Pre-emergence herbicidal action against VIOTR
Excerpt: as §1

Alopecurus myosuroides [9] = test: Post-emergence herbicidal action against ALOMY; settings: 20 g/ha
Description: (§2) Seeds of monocotyledonous and dicotyledonous weed and crop plants are laid out in sandy loam soil in wood-fiber pots, covered with soil and cultivated in a greenhouse under good growth conditions. 2 to 3 weeks after sowing, the test plants are treated at the one-leaf stage. The compounds of the invention, formulated in the form of wettable powders (WP) or as emulsion concentrates (EC), are then sprayed onto the green parts of the plants in the form of an aqueous suspension or emulsion at a water application rate equivalent to 600 to 800 l/ha, with addition of 0.2% wetting agent. After the test plants have been left to stand in the greenhouse under optimal growth conditions for about 3 weeks, the action of the preparations is assessed visually in comparison to untreated controls (herbicidal action in percent (%): 100% activity=the plants have died, 0% activity=like control plants). […] The tables below illustrate, in an illustrative manner, the post-emergence herbicidal action of the compounds of the invention, the herbicidal activity being stated in percent.

Echinochloa crus-galli [10] = test: Post-emergence herbicidal action against ECHCG; settings: visual assessment about 3 weeks after treatment
Description: as §2

Matricaria inodora [11] = test: Post-emergence herbicidal action against MATIN; settings: visual assessment about 3 weeks after treatment
Description: as §2

Setaria viridis [12] = test: Post-emergence herbicidal action against SETVI; settings: visual assessment about 3 weeks after treatment
Description: as §2

Veronica persica [13] = test: Post-emergence herbicidal action against VERPE; settings: 20 g/ha, visual assessment about 3 weeks after treatment
Description: as §2

Cyperus esculentus = test: Pre-emergence herbicidal action against CYPES; settings: visual score after 3 weeks vs untreated controls
Excerpt: as §1

Stellaria media [14] = test: Pre-emergence herbicidal action against STEME; settings: 320 g/ha
Excerpt: as §1

Abutilon theophrasti [15] = test: Post-emergence herbicidal action against ABUTH
Description: as §2

Amaranthus retroflexus [16] = test: Post-emergence herbicidal action against AMARE; settings: visual assessment about 3 weeks after treatment
Description: as §2

Stellaria media [17] = test: Post-emergence herbicidal action against STEME; settings: 80 g/ha, visual assessment about 3 weeks after treatment
Description: as §2

Viola tricolor [18] = test: Post-emergence herbicidal action against VIOTR
Description: as §2

Pharbitis purpurea = test: Post-emergence herbicidal action against PHBPU; settings: 20 g/ha, visual assessment about 3 weeks after treatment
Description: as §2

Avena fatua = test: Post-emergence herbicidal action against AVEFA; settings: 20 g/ha, visual assessment about 3 weeks after treatment
Description: as §2

Polygonum convolvulus = test: Pre-emergence herbicidal action against POLCO; settings: 80 g/ha
Excerpt: as §1

| Compound | Pre-emergence action against ABUTH (Abutilon theophrasti [1]; 80 g/ha) [%] | Pre-emergence action against ALOMY (Alopecurus myosuroides [2]; 80 g/ha) [%] | Pre-emergence action against AMARE (Amaranthus retroflexus [3]; 20 g/ha) [%] | Pre-emergence action against AMARE (Amaranthus retroflexus [3]; 80 g/ha) [%] | Pre-emergence action against ECHCG (Echinochloa crus-galli [4]; 80 g/ha) [%] | Pre-emergence action against MATIN (Matricaria inodora [5]; 20 g/ha) [%] | Pre-emergence action against MATIN (Matricaria inodora [5]; 80 g/ha) [%] | Pre-emergence action against DIGSA (Digitaria sanguinalis; 20 g/ha) [%] | Pre-emergence action against DIGSA (Digitaria sanguinalis; 80 g/ha) [%] | Pre-emergence action against SETVI (Setaria viridis [6]; 80 g/ha) [%] | Pre-emergence action against VERPE (Veronica persica [7]; 80 g/ha) [%] | Pre-emergence action against VIOTR (Viola tricolor [8]; 20 g/ha) [%] | Pre-emergence action against VIOTR (Viola tricolor [8]; 80 g/ha) [%] | Post-emergence action against ALOMY (Alopecurus myosuroides [9]) [%] | Post-emergence action against ECHCG in % (Echinochloa crus-galli [10]; 20 g/ha) [%] | Post-emergence action against MATIN in % (Matricaria inodora [11]; 20 g/ha) [%] | Post-emergence action against SETVI in % (Setaria viridis [12]; 20 g/ha) [%] | Pre-emergence action against ABUTH (Abutilon theophrasti [1]; 20 g/ha) [%] | Post-emergence action against PHBPU in % (Pharbitis purpurea) [%] | Post-emergence action against VIOTR in % (Viola tricolor [18]; 20 g/ha) [%] | further results |
| --- | --- | --- | --- | --- | --- | --- | --- | --- | --- | --- | --- | --- | --- | --- | --- | --- | --- | --- | --- | --- | --- |
| Cc1c(C(=O)Nc2nnnn2C)ccc(C(F)(F)F)c1C(=O)N(C)C1CC1 [Example 1-21] | 100 | 90 | 100 | 100 | 90 | 80 | 100 | 100 | 100 | 100 | 80 | 90 | 100 | 80 | 90 | 80 | 90 | – | – | – | Post-emergence action against VERPE in % (Veronica persica [13]): 80% |
| Cc1c(C(=O)Nc2nnnn2C)ccc(S(C)(=O)=O)c1C(=O)N(C)C [Example 1-395] | 90 | – | – | 100 | – | – | – | – | – | – | 100 | – | 80 | – | 100 | – | – | – | – | – | Pre-emergence action against ABUTH (Abutilon theophrasti [1]; Dosage column 320 g/ha (heading prints 3200 g/ha)): 100%; Pre-emergence action against AMARE (Amaranthus retroflexus [3]; 320 g/ha): 100%; Pre-emergence action against CYPES (Cyperus esculentus; 80 g/ha): 100%; Pre-emergence action against CYPES (Cyperus esculentus; 320 g/ha): 100%; Pre-emergence action against ECHCG (Echinochloa crus-galli [4]; 320 g/ha): 100%; Pre-emergence action against MATIN (Matricaria inodora [5]; 320 g/ha): 100%; Pre-emergence action against SETVI (Setaria viridis [6]; 320 g/ha): 100%; Pre-emergence action against STEME (Stellaria media [14]): 100%; Pre-emergence action against VERPE (Veronica persica [7]; 20 g/ha): 90%; Pre-emergence action against VERPE (Veronica persica [7]; 320 g/ha): 100%; Pre-emergence action against VIOTR (Viola tricolor [8]; 320 g/ha): 100%; Post-emergence action against ABUTH (Abutilon theophrasti [15]; 80 g/ha): 100%; Post-emergence action against AMARE in % (Amaranthus retroflexus [16]; 80 g/ha): 80%; Post-emergence action against ECHCG in % (Echinochloa crus-galli [10]; 80 g/ha): 100%; Post-emergence action against SETVI in % (Setaria viridis [12]; 80 g/ha): 90%; Post-emergence action against STEME in % (Stellaria media [17]): 100%; Post-emergence action against VIOTR in % (Viola tricolor [18]; 80 g/ha): 90% |
| CCOC(=O)[C@@H]1CCCN1C(=O)c1c(C(F)(F)F)ccc(C(=O)Nc2nnnn2C)c1C [Example 1-401] | 100 | – | 100 | 100 | – | – | 90 | 90 | 100 | 100 | – | – | – | – | – | 90 | – | 100 | 80 | – | – |
| CCN(CC)C(=O)c1c(C(F)(F)F)ccc(C(=O)Nc2nnnn2CC)c1C [Example 2-31] | 100 | 80 | 100 | 100 | – | 90 | 100 | 90 | 100 | 90 | 80 | 100 | 100 | 80 | 90 | 90 | 90 | 100 | 90 | 100 | Post-emergence action against AVEFA in % (Avena fatua): 80%; Post-emergence action against ECHCG in % (Echinochloa crus-galli [10]; 5 g/ha): 80%; Post-emergence action against MATIN in % (Matricaria inodora [11]; 5 g/ha): 80%; Post-emergence action against SETVI in % (Setaria viridis [12]; 5 g/ha): 80%; Post-emergence action against VIOTR in % (Viola tricolor [18]; 5 g/ha): 100% |
| CCn1nnnc1NC(=O)c1ccc(C(F)F)c(C(=O)N(C)C)c1C [Example 2-50] | 100 | 90 | 90 | 100 | 80 | 90 | 90 | – | – | – | 80 | – | – | 80 | 90 | – | 80 | – | – | 90 | Pre-emergence action against POLCO (Polygonum convolvulus): 90%; Post-emergence action against ABUTH (Abutilon theophrasti [15]; 5 g/ha): 90%; Post-emergence action against ABUTH (Abutilon theophrasti [15]; 20 g/ha): 90%; Post-emergence action against AMARE in % (Amaranthus retroflexus [16]; 5 g/ha): 100%; Post-emergence action against AMARE in % (Amaranthus retroflexus [16]; 20 g/ha): 100%; Post-emergence action against ECHCG in % (Echinochloa crus-galli [10]; 5 g/ha): 80%; Post-emergence action against VERPE in % (Veronica persica [13]): 90% |
| CCN(C(=O)c1c(C(F)(F)F)ccc(C(=O)Nc2nnnn2CC)c1Cl)C1CC1 [Example 2-136] | 100 | 100 | 100 | 100 | 90 | 80 | 100 | 90 | 100 | 100 | – | 100 | 100 | 90 | 90 | 80 | – | 100 | – | 100 | Pre-emergence action against ALOMY (Alopecurus myosuroides [2]; 20 g/ha): 90%; Post-emergence action against ABUTH (Abutilon theophrasti [15]; 5 g/ha): 80%; Post-emergence action against ABUTH (Abutilon theophrasti [15]; 20 g/ha): 90%; Post-emergence action against AMARE in % (Amaranthus retroflexus [16]; 5 g/ha): 100%; Post-emergence action against AMARE in % (Amaranthus retroflexus [16]; 20 g/ha): 100%; Post-emergence action against AVEFA in % (Avena fatua): 80%; Post-emergence action against VIOTR in % (Viola tricolor [18]; 5 g/ha): 100% |
| CCOC(=O)[C@@H]1CCCN1C(=O)c1c(C(F)(F)F)ccc(C(=O)Nc2nnnn2CC)c1Cl [Example 2-398] | 100 | – | – | 100 | – | – | 100 | – | 90 | 80 | – | – | 100 | – | – | – | – | 80 | – | – | – |
| CCOC(=O)[C@@H]1CCCN1C(=O)c1c(C(F)(F)F)ccc(C(=O)Nc2nnnn2CC)c1C [Example 2-399] | 100 | – | 90 | 100 | 90 | 90 | 100 | 90 | 100 | 100 | 100 | 90 | 100 | – | 80 | 80 | – | 100 | 90 | – | Pre-emergence action against VERPE (Veronica persica [7]; 20 g/ha): 100%; Post-emergence action against AMARE in % (Amaranthus retroflexus [16]; 20 g/ha): 80% |
